Read-outs that look alike come from different tables or passages of the source.
How the values were obtained:
[1] = test system: isolated guinea pig atria; assay: Positive inotropic effect on isolated guinea pig atria; assay type: cell-based
Description: (§1) Anthopleurin-A can be further characterized by its pharmacological characteristics. […] The LD50 in mice (i.p.) is about 0.2-0.3 mg./kg.

[2] = test system: mice; assay: Acute toxicity (LD50) in mice, i.p.; assay type: in vivo
Description: as §1

[3] = test system: heart rate; assay: Chronotropic effect (heart rate)
[4] = test system: Na, K-ATPase; assay: Enzyme inhibition, Na, K-ATPase; assay type: biochemical; settings: 3 × 10^-8 M
[5] = test system: monoamine oxidase; assay: Enzyme inhibition, monoamine oxidase; assay type: biochemical; settings: 3 × 10^-8 M
[6] = test system: catechol-O-methyltransferase; assay: Enzyme inhibition, catechol-O-methyltransferase; assay type: biochemical; settings: 3 × 10^-8 M
[7] = test system: cyclic 3', 5'-nucleotide phosphodiesterase; assay: Enzyme inhibition, cyclic 3', 5'-nucleotide phosphodiesterase; assay type: biochemical; settings: 3 × 10^-8 M
[8] = Dependence of drug action and toxicity on external Ca++ and K+, compared with ouabain
[9] = test system: isolated heart; assay: Cardiotonic effect in the isolated heart, rat; assay type: cell-based
Description: (§2) This cardiac stimulation is observed in animals by measuring the in vitro contractile effect on isolated heart muscle and in vivo in anesthetized dogs fitted with a cardiac strain gauge.

[10] = test system: isolated heart; assay: Cardiotonic effect in the isolated heart, guinea pig; assay type: cell-based
Description: as §2

[11] = test system: isolated heart; assay: Cardiotonic effect in the isolated heart, rabbit; assay type: cell-based
Description: as §2

[12] = test system: isolated heart; assay: Cardiotonic effect in the isolated heart, cat; assay type: cell-based
Description: as §2

[13] = test system: isolated heart; assay: Cardiotonic effect in the isolated heart, dog; assay type: cell-based
Description: as §2

[14] = test system: in situ heart; assay: Cardiotonic effect in the in situ heart, dog; assay type: in vivo
Description: as §2

[15] = test system: in situ heart; assay: Cardiotonic effect in the in situ heart, cat; assay type: in vivo
[16] = test system: blood pressure; assay: Effect on blood pressure; settings: in vivo
[17] = test system: isolated vascular muscle; assay: Mechanical effect on the isolated vascular muscle; assay type: cell-based
[18] = test system: atria; assay: Inotropic effect on atria under stressful conditions; assay type: cell-based; settings: severe temperature stress, anoxia and low Ca^++ concentrations
[19] = Stability of anthopleurin-A on storage and in solution; assay type: physicochemical
[20] = Solubility in water; assay type: physicochemical; settings: deionized water
[21] = Isoelectric focusing; assay type: physicochemical; settings: doubly purified material
Description: For the purpose of obtaining electrophoretic and amino acid analysis the anthopleurin-A obtained in Example 1 was rechromatographed on CM Sephadex C-25, Sephadex G-50 and G-10 according to the process set forth in Example 1, Steps c, d and e, respectively. The doubly purified material was subject to electrophoretic analysis using commercially available pre-cast 12% acrylamide gels and matched buffer systems obtained from Bio.Rad Laboratories, 32nd and Griffin, Richmond, California.
Isoelectric focusing gives the isoelectric point at a pH = 8.2. Disc gel electrophoresis with 12% polyacrylamide gel at pH 3.6 gave an Rf value of 0.46 versus methyl green tracking dye. […] Sodium dodecyl sulfate (SDS) disc gel electrophoresis using a 10% gel indicated a m.w. of about 4,700 after incubation with dithioerythritol, using RNase A and pancreatic trypsin inhibitor (PTI) for comparison. The molecular weight is so low that these values are only approximate. AP-A was determined to be a peptide on the basis of positive ninhydrin spots obtained when a hydrolysate of AP-A was chromatographed.

anthopleurin-A
ED50, positive inotropic effect ([1]; isolated guinea pig atria): 1.1 nM | potency relative to ouabain in positive inotropic effect ([1]; times as potent as ouabain): 200-1000 x | LD50 [2]: 0.2 to 0.3 mg/kg | chronotropic effect / effect on heart rate [3]: does not show any chronotropic effect | chronotropic effect / effect on heart rate ([3]; listed as AP-A): does not have any demonstrable effect | inhibition of Na, K-ATPase [4]: none of the following enzymes is inhibited | inhibition of monoamine oxidase [5]: none of the following enzymes is inhibited | inhibition of catechol-O-methyltransferase [6]: none of the following enzymes is inhibited | inhibition of cyclic 3', 5'-nucleotide phosphodiesterase [7]: none of the following enzymes is inhibited | effect of lowered external K^+ on drug toxicity [8]: does not alter drug toxicity | sensitivity to Ca^++ concentration [8]: not nearly as sensitive | cardiotonic effect in the isolated heart [9]: effective cardiotonic agent | cardiotonic effect in the isolated heart [10]: effective cardiotonic agent | cardiotonic effect in the isolated heart [11]: effective cardiotonic agent | cardiotonic effect in the isolated heart [12]: effective cardiotonic agent | cardiotonic effect in the isolated heart [13]: effective cardiotonic agent | cardiotonic effect in the in situ heart [14]: effective cardiotonic agent | cardiotonic effect in the in situ heart [15]: effective cardiotonic agent | effect on blood pressure [16]: negligible effect | effect on blood pressure ([16]; listed as AP-A): does not have any demonstrable effect | mechanical effect on the isolated vascular muscle / vascular smooth muscle [17]: no demonostrable mechanical effect | mechanical effect on the isolated vascular muscle / vascular smooth muscle ([17]; listed as AP-A): does not have any demonstrable effect | inotropic effect on atria under stress [18]: positive inotropic effect | time stable in solution ([19]; as fraction G, 20.5° C., 10^-7 M solutions, pH 4.55-7.80): at least 24 hours | loss of cardiotonic activity ([19]; as fraction G, pH above 11): about 90% | storage stability ([19]; kept at -20° C. for a year as lyophilized fraction C or lyophilized fraction G): no signs of deterioration | stability versus pH ([19]; neutral and lower pH values): relatively stable | solubility [20]: very soluble | isoelectric point [21]: 8.2 pH

— US4059694A, “Cardiotonic agent” (The University of Hawaii, priority 1976, dated 1977)
